This is an account of results in patent US9107396B2, “Stabilized synthetic brood pheromone and race-specific ratios of components for manipulating the behavior and physiology of honey bees” (OMS Investments, Inc., priority 2006, dated 2015).

The series is described as follows: Chemical stability of simplified brood pheromone ester blends exposed to air, capillary gas chromatography. Type of series: physicochemical. The following applies: for time for which the component remained intact: with antioxidant stabilizer tertiary-butylhydroquinone; for proportional composition of the total blend at start: two-week test; for percentage composition at start / percentage composition after 72 weeks: unstabilized five-component ethyl ester blend; for percentage composition at start: 72-week test. The method, then: Short-term and long-term stability studies were conducted, with simplified blends of potentially unstable brood pheromone components mixed in approximately the same proportions as in Example 1. Short-term evaluation for a two-week duration was done on blends of methyl oleate, methyl linoleate and methyl linolenate, and ethyl oleate, ethyl linoleate and ethyl linolenate, each with and without tertiary-butylhydroquinone. Twenty-week tests were done with identical blends as for the two-week experiments, but 72-week tests had methyl and ethyl palmitate and stearate added in the appropriate proportions to their respective blends. Approximately 250 mg of a blend was placed in a 4 mL (15×45 mm) plastic vial (Chromatographic Specialties) fitted with a diffusion insert screw cap (Agilent Technologies) with a 1 mm diameter hole to allow air circulation over the sample. All blends were continuously held at a constant temperature of 30° C.
For analysis by capillary gas chromatography, approximately 1 mg of a blend was dissolved in 1 mL of diethyl ether, and a 1 μL aliquot of each extract was analyzed. Analyses were done at time zero and after the given duration of exposure to air at 30° C., using a Hewlett Packard HP5890 gas chromatograph equipped with a flame ionization detector and a 30 m long BPX-70 capillary column (J&W Scientific). The injector and detector temperatures were 260° C. and 285° C., respectively. The temperature program was 80° C. rising at 5° C. per min for 24 min to 200° C., and then rising at 20° C. per min for 3 min to 260° C.
Two-week results are given for methyl and ethyl esters (FIGS. 1 and 2), while long-term 20-week and 72-week results are given for only ethyl esters (FIGS. 3 and 4). Long-term results for methyl esters were virtually identical to those for the ethyl esters.

Setting [1] is: unstabilized blend, after two weeks exposure to air.
Setting [2] is: unstabilized blend, before exposure.

As for `CC/C=C\C/C=C\C/C=C\CCCCCCCC(=O)OC` [methyl linolenate], the “time for which the component remained intact” value is listed as 72 weeks. Moreover, under “2 weeks”, the “decrease in amount of component in the unstabilized blend” value (from here on “decrease in amount of component”) amounted to 90%.

Regarding `CCCCCCCC/C=C\CCCCCCCC(=O)OCC` [ethyl oleate], the “percentage composition after 72 weeks” value was found to be 10% and the “time for which the component remained intact” value is reported as 72 weeks. Also, the “proportional composition of the total blend after two weeks” value under setting [1] came to 66%. Further, under setting [2], the “proportional composition of the total blend at start” value worked out at 40%. The “proportion of the total blend at start” value (unstabilized ethyl ester blend, 20-week test, before exposure) is given as 37%. Moreover, where the note is “unstabilized ethyl ester blend, after 20 weeks”, the “proportion of the total blend after 20 weeks” value is recorded as 43%. The “percentage composition at start” value (before exposure) amounted to 24%.

In the case of `CCCCCCCCCCCCCCCCCC(=O)OCC` [ethyl stearate], the “percentage composition after 72 weeks” value is 57%. Further, under “before exposure”, the “percentage composition at start” value is on record as 23%.

Take `CCCCC/C=C\C/C=C\CCCCCCCC(=O)OCC` [ethyl linoleate]: the “time for which the component remained intact” value turned out to be 72 weeks. In addition, the “decrease in amount of component” value (2 weeks) is 74%. The “component remaining in the unstabilized blend after 20 weeks” value (3360 h) is on record as “no ethyl linoleate”. For the same molecule, the “component remaining in the unstabilized blend after 72 weeks” value (12096 h) is recorded as “complete breakdown”.

`CCCCCCCC/C=C\CCCCCCCC(=O)OC` [methyl oleate]: the “time for which the component remained intact” value is recorded as 72 weeks. Under setting [1], the “proportional composition of the total blend after two weeks” value is reported as 82%. In addition, the “proportional composition of the total blend at start” value under setting [2] is 48%.

Consider `CCCCC/C=C\C/C=C\CCCCCCCC(=O)OC` [methyl linoleate], for which the “time for which the component remained intact” value is 72 weeks. Under “2 weeks”, the “decrease in amount of component” value was found to be 85%.

Take `CCCCCCCCCCCCCCCC(=O)OCC` [ethyl palmitate]: the “percentage composition after 72 weeks” value worked out at 20%. For the same molecule, the “percentage composition at start” value (before exposure) was determined as 8%.

In the case of `CC/C=C\C/C=C\C/C=C\CCCCCCCC(=O)OCC` [ethyl linolenate], the “time for which the component remained intact” value was 72 weeks. The “decrease in amount of component” value under setting [1] came out at 94%. Further, the “component remaining in the unstabilized blend after 20 weeks” value (unstabilized ethyl ester blend, 20 weeks) is given as “no ethyl linolenate remained”. The “component remaining in the unstabilized blend after 72 weeks” value (unstabilized ethyl ester blend, 72 weeks) is listed as “complete breakdown”.
